According to ChEMBL document CHEMBL3991601, “The target landscape of clinical kinase drugs” (Science, 2017):
Activity calls are given as the source filed them. Rule as the data show it, for most assays here: actives have a measured Kd and inactives only a lower limit.

Legend:
[1] = target: Bone morphogenetic protein receptor type-1B (Homo sapiens, UniProt O00238)
[2] = target: Tyrosine-protein kinase BTK (Homo sapiens, UniProt Q06187)
[3] = target: Citron Rho-interacting kinase (Homo sapiens, UniProt O14578)
Citron Rho-interacting kinase, sequence (O14578 whole entry): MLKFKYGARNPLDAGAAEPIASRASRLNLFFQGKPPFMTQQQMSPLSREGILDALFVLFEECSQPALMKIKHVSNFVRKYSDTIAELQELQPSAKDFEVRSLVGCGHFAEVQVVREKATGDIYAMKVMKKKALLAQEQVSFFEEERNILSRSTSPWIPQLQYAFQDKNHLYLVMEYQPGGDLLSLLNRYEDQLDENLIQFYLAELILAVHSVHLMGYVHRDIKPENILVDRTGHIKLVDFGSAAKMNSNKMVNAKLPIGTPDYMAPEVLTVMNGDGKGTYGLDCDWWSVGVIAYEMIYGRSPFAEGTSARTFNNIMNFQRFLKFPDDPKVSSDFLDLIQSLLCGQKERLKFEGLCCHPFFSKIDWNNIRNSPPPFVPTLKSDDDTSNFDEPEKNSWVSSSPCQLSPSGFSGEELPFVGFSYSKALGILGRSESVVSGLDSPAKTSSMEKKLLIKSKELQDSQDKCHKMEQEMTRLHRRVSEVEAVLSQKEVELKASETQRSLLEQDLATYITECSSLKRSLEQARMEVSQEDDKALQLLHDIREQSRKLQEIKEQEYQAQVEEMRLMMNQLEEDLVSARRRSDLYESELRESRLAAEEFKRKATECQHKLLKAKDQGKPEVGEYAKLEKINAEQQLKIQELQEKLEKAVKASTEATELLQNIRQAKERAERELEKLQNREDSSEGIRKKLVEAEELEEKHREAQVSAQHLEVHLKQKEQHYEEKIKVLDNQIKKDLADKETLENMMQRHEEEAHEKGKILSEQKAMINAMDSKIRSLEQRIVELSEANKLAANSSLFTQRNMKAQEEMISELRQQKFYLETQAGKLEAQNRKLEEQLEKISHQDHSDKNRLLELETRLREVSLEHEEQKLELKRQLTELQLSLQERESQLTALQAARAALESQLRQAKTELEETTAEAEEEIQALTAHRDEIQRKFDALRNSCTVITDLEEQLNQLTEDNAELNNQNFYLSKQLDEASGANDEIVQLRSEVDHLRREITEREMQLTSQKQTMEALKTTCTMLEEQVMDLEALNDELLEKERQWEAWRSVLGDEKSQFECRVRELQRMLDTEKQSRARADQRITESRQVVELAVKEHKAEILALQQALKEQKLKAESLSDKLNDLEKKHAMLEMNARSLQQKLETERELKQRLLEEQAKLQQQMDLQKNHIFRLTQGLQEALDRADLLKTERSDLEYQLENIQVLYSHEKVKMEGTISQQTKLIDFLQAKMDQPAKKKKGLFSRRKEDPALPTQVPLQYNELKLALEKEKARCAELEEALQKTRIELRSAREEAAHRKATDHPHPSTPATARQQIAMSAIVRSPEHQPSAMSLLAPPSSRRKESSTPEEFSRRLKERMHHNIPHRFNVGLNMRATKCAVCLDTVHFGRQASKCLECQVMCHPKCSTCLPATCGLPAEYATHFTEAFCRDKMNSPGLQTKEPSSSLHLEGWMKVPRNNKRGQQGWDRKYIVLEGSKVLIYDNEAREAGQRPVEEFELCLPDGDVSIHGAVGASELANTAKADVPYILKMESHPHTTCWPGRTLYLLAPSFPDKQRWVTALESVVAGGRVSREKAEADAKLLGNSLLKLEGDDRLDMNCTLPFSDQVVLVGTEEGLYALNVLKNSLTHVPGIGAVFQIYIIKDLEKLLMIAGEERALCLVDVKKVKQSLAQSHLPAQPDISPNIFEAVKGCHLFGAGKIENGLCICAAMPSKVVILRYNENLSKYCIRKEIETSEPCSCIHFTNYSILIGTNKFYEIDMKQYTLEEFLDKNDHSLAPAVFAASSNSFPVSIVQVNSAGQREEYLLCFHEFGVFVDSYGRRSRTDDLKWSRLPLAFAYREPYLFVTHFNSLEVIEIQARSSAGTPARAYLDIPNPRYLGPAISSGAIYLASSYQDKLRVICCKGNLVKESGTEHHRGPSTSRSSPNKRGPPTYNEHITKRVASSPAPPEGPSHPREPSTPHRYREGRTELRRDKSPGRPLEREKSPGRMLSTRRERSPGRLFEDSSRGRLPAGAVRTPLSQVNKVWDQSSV

[4] = target: Tyrosine-protein kinase CSK (Homo sapiens, UniProt P41240)
[5] = target: Casein kinase II subunit alpha' (Homo sapiens, UniProt P19784)
Scaffold protein ILK = target: T1, Scaffold protein ILK (Homo sapiens, UniProt Q13418)
T1 sequence (Q13418 whole entry): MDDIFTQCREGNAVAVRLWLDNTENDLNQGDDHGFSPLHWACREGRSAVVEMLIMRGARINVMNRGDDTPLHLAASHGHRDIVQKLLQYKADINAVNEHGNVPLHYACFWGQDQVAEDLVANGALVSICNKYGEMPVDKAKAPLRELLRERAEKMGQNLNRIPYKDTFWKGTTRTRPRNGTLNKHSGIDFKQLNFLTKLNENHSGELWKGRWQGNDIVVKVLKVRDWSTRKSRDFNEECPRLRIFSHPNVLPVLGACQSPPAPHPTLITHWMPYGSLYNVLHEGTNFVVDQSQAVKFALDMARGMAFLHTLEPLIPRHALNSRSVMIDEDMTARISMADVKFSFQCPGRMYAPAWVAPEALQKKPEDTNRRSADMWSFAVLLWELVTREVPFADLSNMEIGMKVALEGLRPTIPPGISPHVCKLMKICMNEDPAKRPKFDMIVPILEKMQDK

[6] = target: T2, Mitogen-activated protein kinase kinase kinase 2 (Homo sapiens, UniProt Q9Y2U5)
T2 sequence (Q9Y2U5 whole entry): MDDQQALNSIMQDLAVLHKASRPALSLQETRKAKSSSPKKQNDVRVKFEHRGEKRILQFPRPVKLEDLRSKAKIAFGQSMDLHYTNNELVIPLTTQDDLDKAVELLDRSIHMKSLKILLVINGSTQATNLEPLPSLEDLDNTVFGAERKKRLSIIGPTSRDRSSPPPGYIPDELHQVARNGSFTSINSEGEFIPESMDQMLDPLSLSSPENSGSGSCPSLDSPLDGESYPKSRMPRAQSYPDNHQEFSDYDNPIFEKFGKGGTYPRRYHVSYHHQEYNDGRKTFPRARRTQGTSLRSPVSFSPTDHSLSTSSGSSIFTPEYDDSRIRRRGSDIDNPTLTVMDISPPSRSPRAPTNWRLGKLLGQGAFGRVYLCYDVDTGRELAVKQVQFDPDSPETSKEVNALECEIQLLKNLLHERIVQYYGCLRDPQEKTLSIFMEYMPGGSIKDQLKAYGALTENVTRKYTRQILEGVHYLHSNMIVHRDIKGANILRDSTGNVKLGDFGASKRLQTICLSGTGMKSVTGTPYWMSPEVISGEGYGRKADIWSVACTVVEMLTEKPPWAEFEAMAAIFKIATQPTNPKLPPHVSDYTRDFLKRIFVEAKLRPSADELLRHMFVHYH

[7] = target: T3, Mitogen-activated protein kinase 15 (Homo sapiens, UniProt Q8TD08)
T3 sequence (Q8TD08 whole entry): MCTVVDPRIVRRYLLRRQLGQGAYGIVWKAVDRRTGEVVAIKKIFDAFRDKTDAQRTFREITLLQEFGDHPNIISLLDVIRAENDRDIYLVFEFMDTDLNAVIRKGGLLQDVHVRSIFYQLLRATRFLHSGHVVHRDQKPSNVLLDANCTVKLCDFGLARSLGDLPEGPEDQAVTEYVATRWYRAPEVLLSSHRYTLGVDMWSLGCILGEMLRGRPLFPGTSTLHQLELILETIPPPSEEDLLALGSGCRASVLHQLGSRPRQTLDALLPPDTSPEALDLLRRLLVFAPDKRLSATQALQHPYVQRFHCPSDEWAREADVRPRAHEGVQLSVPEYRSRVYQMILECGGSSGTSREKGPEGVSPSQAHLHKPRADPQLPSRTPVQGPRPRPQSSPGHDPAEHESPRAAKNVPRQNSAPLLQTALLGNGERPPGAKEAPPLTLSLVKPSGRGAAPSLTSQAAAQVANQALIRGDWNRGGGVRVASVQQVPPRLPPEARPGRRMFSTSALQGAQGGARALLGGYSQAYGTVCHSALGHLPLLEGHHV

[8] = target: Serine/threonine-protein kinase N1 (Homo sapiens, UniProt Q16512)
Serine/threonine-protein kinase N1, sequence (Q16512 whole entry): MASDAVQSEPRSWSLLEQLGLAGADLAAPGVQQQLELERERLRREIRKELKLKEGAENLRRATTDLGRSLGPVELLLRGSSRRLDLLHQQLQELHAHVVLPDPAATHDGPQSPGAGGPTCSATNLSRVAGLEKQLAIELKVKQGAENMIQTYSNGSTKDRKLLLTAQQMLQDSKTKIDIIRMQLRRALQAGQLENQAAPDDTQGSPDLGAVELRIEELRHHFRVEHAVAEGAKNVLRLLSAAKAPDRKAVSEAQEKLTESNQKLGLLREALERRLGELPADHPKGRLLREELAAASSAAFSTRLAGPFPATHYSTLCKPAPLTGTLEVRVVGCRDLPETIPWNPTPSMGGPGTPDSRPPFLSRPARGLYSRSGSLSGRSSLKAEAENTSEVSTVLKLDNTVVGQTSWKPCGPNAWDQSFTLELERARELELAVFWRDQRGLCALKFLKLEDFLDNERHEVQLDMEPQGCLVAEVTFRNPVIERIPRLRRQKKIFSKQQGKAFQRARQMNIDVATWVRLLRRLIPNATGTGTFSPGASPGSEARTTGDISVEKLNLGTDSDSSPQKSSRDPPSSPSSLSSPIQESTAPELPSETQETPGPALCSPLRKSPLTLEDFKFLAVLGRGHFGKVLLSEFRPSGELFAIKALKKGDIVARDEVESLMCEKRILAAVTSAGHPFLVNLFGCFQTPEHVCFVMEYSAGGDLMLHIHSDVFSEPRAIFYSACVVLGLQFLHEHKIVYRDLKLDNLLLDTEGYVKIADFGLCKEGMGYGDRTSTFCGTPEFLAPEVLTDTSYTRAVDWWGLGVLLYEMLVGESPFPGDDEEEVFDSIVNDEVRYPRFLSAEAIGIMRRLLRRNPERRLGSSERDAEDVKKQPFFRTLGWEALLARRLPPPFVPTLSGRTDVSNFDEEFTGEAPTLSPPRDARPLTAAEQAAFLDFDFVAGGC

[9] = target: cAMP-dependent protein kinase catalytic subunit alpha (Homo sapiens, UniProt P17612)
[10] = target: T4, Serine/threonine-protein kinase D3 (Homo sapiens, UniProt O94806)
T4 sequence (O94806 whole entry): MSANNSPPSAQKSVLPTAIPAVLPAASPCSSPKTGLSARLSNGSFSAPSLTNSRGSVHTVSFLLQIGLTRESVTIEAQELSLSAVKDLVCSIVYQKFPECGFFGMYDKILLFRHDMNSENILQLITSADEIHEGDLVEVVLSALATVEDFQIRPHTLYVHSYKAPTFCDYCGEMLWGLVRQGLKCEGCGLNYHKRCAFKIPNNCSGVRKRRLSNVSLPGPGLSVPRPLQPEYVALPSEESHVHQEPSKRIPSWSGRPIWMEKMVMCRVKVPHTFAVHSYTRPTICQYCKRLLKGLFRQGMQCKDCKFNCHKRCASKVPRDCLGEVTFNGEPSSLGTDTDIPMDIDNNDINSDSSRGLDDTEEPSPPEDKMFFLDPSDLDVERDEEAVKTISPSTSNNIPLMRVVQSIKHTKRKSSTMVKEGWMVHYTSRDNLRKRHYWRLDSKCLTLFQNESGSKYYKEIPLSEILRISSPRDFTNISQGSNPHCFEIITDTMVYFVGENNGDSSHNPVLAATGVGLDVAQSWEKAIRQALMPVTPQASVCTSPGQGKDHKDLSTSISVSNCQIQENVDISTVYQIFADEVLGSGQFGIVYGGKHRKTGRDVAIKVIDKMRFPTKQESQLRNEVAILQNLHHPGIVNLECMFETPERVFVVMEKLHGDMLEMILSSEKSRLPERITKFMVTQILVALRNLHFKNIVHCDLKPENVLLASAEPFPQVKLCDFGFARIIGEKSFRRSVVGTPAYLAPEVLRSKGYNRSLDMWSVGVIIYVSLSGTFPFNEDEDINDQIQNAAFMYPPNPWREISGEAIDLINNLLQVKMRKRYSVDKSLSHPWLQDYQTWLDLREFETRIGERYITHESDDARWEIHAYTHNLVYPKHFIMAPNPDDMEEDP

[11] = target: Mitogen-activated protein kinase kinase kinase 20 (Homo sapiens, UniProt Q9NYL2)
Mitogen-activated protein kinase kinase kinase 20, sequence (Q9NYL2 whole entry): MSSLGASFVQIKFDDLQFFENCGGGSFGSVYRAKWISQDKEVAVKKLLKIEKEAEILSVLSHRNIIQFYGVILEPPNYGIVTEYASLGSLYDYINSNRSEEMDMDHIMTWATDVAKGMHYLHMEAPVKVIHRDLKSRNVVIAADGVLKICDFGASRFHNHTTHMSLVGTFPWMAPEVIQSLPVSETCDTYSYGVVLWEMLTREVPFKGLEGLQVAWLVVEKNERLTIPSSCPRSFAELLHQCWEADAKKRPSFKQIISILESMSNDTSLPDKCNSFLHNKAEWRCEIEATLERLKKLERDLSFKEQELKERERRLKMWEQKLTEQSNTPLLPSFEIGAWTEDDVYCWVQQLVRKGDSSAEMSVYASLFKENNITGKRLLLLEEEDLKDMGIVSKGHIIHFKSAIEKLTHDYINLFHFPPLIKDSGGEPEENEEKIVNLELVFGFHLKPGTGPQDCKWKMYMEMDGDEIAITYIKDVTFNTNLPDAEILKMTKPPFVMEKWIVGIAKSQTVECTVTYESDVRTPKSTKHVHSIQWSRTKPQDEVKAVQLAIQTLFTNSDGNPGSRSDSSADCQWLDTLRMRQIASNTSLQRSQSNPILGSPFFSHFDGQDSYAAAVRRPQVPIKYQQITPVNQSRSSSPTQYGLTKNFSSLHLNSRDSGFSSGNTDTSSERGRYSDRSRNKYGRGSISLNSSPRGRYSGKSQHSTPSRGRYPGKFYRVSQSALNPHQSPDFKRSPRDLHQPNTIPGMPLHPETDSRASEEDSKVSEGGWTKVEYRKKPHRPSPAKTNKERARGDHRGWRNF
Also: in the data inactive means no Kd found up to 30 µM.

Tyrosine-protein kinase BTK, sequence (Q06187 whole entry): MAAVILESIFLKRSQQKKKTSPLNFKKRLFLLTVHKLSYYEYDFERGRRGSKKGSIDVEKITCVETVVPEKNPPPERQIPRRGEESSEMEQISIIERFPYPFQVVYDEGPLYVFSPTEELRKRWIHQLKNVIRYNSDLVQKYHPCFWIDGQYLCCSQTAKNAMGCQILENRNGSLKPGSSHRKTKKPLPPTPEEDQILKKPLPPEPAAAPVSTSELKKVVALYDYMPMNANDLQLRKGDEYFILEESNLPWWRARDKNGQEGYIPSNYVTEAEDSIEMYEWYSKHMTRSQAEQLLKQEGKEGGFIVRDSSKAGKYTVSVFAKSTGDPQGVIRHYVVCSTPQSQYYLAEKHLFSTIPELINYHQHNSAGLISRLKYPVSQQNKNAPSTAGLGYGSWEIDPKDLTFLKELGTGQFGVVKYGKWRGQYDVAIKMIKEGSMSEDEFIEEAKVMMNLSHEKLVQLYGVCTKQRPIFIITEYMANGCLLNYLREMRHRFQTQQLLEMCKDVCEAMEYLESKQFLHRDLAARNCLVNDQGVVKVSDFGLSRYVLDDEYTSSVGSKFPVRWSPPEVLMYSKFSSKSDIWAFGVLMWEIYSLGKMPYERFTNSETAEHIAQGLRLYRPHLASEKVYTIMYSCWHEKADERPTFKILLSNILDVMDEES
Bone morphogenetic protein receptor type-1B, sequence (O00238 whole entry): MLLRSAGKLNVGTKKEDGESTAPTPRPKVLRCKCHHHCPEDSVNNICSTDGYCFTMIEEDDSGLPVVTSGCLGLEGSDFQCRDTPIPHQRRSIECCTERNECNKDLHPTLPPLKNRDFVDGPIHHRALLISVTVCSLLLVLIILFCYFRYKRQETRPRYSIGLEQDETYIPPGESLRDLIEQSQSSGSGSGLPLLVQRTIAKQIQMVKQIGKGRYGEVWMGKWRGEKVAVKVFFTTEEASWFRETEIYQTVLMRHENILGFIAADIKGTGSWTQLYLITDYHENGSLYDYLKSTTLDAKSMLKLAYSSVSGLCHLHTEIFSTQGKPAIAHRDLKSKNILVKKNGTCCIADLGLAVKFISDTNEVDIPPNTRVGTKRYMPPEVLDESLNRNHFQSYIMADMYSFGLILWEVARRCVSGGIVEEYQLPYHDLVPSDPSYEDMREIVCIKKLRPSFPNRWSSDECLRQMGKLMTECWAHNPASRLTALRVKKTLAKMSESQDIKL

Kd [1]	Kd [2]	Kd [3]	Kd [4]	Kd [5]	Kd (Scaffold protein ILK)	Kd [6]	Kd [8]	Kd [9]	Kd [10]	Kd [11]	SMILES	Kd [7]
> 30 µM (inactive)	> 30 µM (inactive)	> 30 µM (inactive)	> 30 µM (inactive)	> 30 µM (inactive)	> 30 µM (inactive)	> 30 µM (inactive)	> 30 µM (inactive)	> 30 µM (inactive)	> 30 µM (inactive)	–	COC(=O)N[C@@H](C)CNc1nccc(-c2cn(C(C)C)nc2-c2cc(Cl)cc(NS(C)(=O)=O)c2F)n1 [ENCORAFENIB]	> 30 µM (inactive)
–	> 30 µM (inactive)	> 30 µM (inactive)	> 30 µM (inactive)	> 30 µM (inactive)	–	> 30 µM (inactive)	> 30 µM (inactive)	> 30 µM (inactive)	> 30 µM (inactive)	> 30 µM (inactive)	CN1N=C(N)c2cn([C@@H]3O[C@H](COP(=O)(O)O)[C@@H](O)[C@H]3O)c3ncnc1c23 [TRICIRIBINE PHOSPHATE]	> 30 µM (inactive)
> 30 µM (inactive)	–	> 30 µM (inactive)	> 30 µM (inactive)	> 30 µM (inactive)	> 30 µM (inactive)	> 30 µM (inactive)	> 30 µM (inactive)	–	–	> 30 µM (inactive)	OCCn1cc(-c2cnc3nnn(Cc4ccc5ncccc5c4)c3n2)cn1 [PF-04217903]	> 30 µM (inactive)
> 30 µM (inactive)	> 30 µM (inactive)	> 30 µM (inactive)	> 30 µM (inactive)	> 30 µM (inactive)	–	> 30 µM (inactive)	> 30 µM (inactive)	> 30 µM (inactive)	> 30 µM (inactive)	> 30 µM (inactive)	O=c1sn(-c2cccc3ccccc23)c(=O)n1Cc1ccccc1 [TIDEGLUSIB]	> 30 µM (inactive)
> 30 µM (inactive)	–	> 30 µM (inactive)	> 30 µM (inactive)	> 30 µM (inactive)	> 30 µM (inactive)	> 30 µM (inactive)	> 30 µM (inactive)	–	–	> 30 µM (inactive)	CCc1cnn2c(NCc3ccc[n+]([O-])c3)cc(N3CCCC[C@H]3CCO)nc12 [DINACICLIB]	> 30 µM (inactive)
> 30 µM (inactive)	> 30 µM (inactive)	> 30 µM (inactive)	> 30 µM (inactive)	0.394 µM (active)	–	> 30 µM (inactive)	> 30 µM (inactive)	> 30 µM (inactive)	> 30 µM (inactive)	–	C1=C/COCc2cc(ccc2OCCN2CCCC2)Nc2nccc(n2)-c2cccc(c2)COC/1 [PACRITINIB]	> 30 µM (inactive)
> 30 µM (inactive)	–	1.1 µM (active)	> 30 µM (inactive)	0.015 µM (active)	> 30 µM (inactive)	> 30 µM (inactive)	13.2 µM (active)	–	–	–	Cc1nc(N)sc1-c1ccnc(Nc2ccc(N3CCOCC3)cc2)n1 [CYC-116]	> 30 µM (inactive)
–	–	–	–	–	> 30 µM (inactive)	–	–	–	–	–	CN1CCN(c2ccc3nc(-c4c(N)c5c(F)cccc5[nH]c4=O)[nH]c3c2)CC1 [DOVITINIB]	–
> 30 µM (inactive)	–	> 30 µM (inactive)	> 30 µM (inactive)	> 30 µM (inactive)	> 30 µM (inactive)	–	> 30 µM (inactive)	> 30 µM (inactive)	> 30 µM (inactive)	> 30 µM (inactive)	COc1cc2nccc(Oc3ccc(NC(=O)NC4CC4)c(Cl)c3)c2cc1C(N)=O [LENVATINIB]	> 30 µM (inactive)
> 30 µM (inactive)	> 30 µM (inactive)	> 30 µM (inactive)	> 30 µM (inactive)	4.41 µM (active)	> 30 µM (inactive)	–	> 30 µM (inactive)	–	–	–	Cc1cc(Nc2cc(N3CCN(C)CC3)nc(/C=C/c3ccccc3)n2)n[nH]1 [ENMD-2076]	> 30 µM (inactive)
–	–	–	–	> 30 µM (inactive)	–	–	–	–	–	–	Nc1nc(N)c2nc(-c3cccc(O)c3)c(-c3cccc(O)c3)nc2n1 [TG100-115]	–
> 30 µM (inactive)	> 30 µM (inactive)	> 30 µM (inactive)	> 30 µM (inactive)	> 30 µM (inactive)	> 30 µM (inactive)	> 30 µM (inactive)	> 30 µM (inactive)	> 30 µM (inactive)	> 30 µM (inactive)	–	COc1cc2nccc(Oc3ccc(NC(=O)Nc4cc(C)on4)c(Cl)c3)c2cc1OC [TIVOZANIB]	–
–	–	–	–	–	> 30 µM (inactive)	–	–	–	–	–	CCn1c(-c2nonc2N)nc2c(C#CC(C)(C)O)ncc(OC[C@H]3CCCNC3)c21 [GSK-690693]	–

SMILES	Kd [1]	Kd [2]	Kd [3]	Kd [4]	Kd [5]	Kd (Scaffold protein ILK)	Kd [6]	Kd [8]	Kd [9]	Kd [10]	Kd [11]	Kd [7]
Cc1cn(-c2cc(NC(=O)c3ccc(C)c(Nc4nccc(-c5cccnc5)n4)c3)cc(C(F)(F)F)c2)cn1 [NILOTINIB]	–	–	–	–	–	0.02 µM	–	–	–	–	–	–
C=CC(=O)N1CCC(Oc2cc3c(Nc4ccc(Cl)c(Cl)c4F)ncnc3cc2OC)CC1 [POZIOTINIB]	> 30 µM (inactive)	0.003 µM (active)	> 30 µM (inactive)	> 30 µM (inactive)	–	–	> 30 µM (inactive)	> 30 µM (inactive)	> 30 µM (inactive)	> 30 µM (inactive)	> 30 µM (inactive)	> 30 µM (inactive)
O=C(Nc1cccc(Cl)c1)Nc1ncc(CCNc2ncnc3ccsc23)s1 [SNS-314]	> 30 µM (inactive)	–	–	> 30 µM (inactive)	> 30 µM (inactive)	> 30 µM (inactive)	> 30 µM (inactive)	> 30 µM (inactive)	–	–	–	> 30 µM (inactive)
COC(=O)[C@@]1(O)C[C@H]2O[C@]1(C)n1c3ccccc3c3c4c(c5c6ccccc6n2c5c31)C(=O)NC4 [K-252A]	> 30 µM (inactive)	1.57 µM (active)	> 30 µM (inactive)	> 30 µM (inactive)	> 30 µM (inactive)	> 30 µM (inactive)	4.12 µM (active)	0.264 µM (active)	> 30 µM (inactive)	–	> 30 µM (inactive)	0.167 µM (active)
